Biological target: T1, humanized mhT1R3 (Homo sapiens, UniProt Q7RTX0, A109T/A120V/A176D/A197V/A198V/A228S/A231N/A248T/A280V/A282S/A302S/A412V/A417V/A46T/A537T/C375D/D124S/D249S/D250G/D364H/D419E/D470T/D491G/D88A/DEL352-352/DEL488-489/E172D/E199T/E203N/E217D/E356N/E45S/E481Q/E505D/E525K/E545Q/F540P/F555L/G168S/G205S/G311T/G314N/G355L/G360D/G414H/G438R/G439D/G463S/G50T/G542N/H261R/H278R/H281Y/H332P/I485M/I536F/INS376MLQNLSSG/K32Q/K339E/K422L/K494V/K86G/L173R/L245Q/L272V/L29F/L354S/L385Q/L433M/L458M/L483S/L71F/L74M/M151L/M315I/M318V/M31A/N285S/N386L/N532H/N68L/P112S/P246H/P335S/P416H/P420H/P441T/P60I/Q221E/Q257L/Q317R/Q330L/Q336H/Q359L/Q372R/Q418S/Q504K/Q531K/R123Q/R247D/R252Q/R291G/R30K/R357A/R443Q/R467V/R473T/R479Q/R482Q/R486Y/R498Q/R52N/R550K/R553A/R556P/R560K/R56Q/S251Q/S267K/S289H/S290H/S392A/S446A/S447E/S464P/S477T/S490P/S53Q/S559P/S58N/S67P/T195Q/T346A/T377L/T390I/T434S/T480L/T63N/V152I/V277A/V366M/V36I/V381L/V393T/V437A/V465T/V61P/W72L)
T1 construct: the extracellular domain is of mouse origin and the transmembrane and intracellular domains of human origin; mouse T1R3 extracellular domain (fusion partner replacing the human extracellular domain); expressed in transfected cells; host or cells: transgenic mice (Line 7, 9, 7c) on T1R3-null background; transgene under 13 kb T1R3 promoter, followed by IRES-eGFP
T1 sequence (Q7RTX0 with tags, fused parts or gaps L29F/R30K/M31A/K32Q/V36I/E45S/A46T/G50T/R52N/S53Q/R56Q/S58N/P60I/V61P/T63N/S67P/N68L/L71F/W72L/L74M/K86G/D88A/A109T/P112S/A120V/R123Q/D124S/M151L/V152I/G168S/E172D/L173R/A176D/T195Q/A197V/A198V/E199T/E203N/G205S/E217D/Q221E/A228S/A231N/L245Q/P246H/R247D/A248T/D249S/D250G/S251Q/R252Q/Q257L/H261R/S267K/L272V/V277A/H278R/A280V/H281Y/A282S/N285S/S289H/S290H/R291G/A302S/G311T/G314N/M315I/Q317R/M318V/Q330L/H332P/P335S/Q336H/K339E/T346A/DEL352-352/L354S/G355L/E356N/R357A/Q359L/G360D/D364H/V366M/Q372R/C375D/INS376MLQNLSSG/T377L/V381L/L385Q/N386L/T390I/S392A/V393T/A412V/G414H/P416H/A417V/Q418S/D419E/P420H/K422L/L433M/T434S/V437A/G438R/G439D/P441T/R443Q/S446A/S447E/L458M/G463S/S464P/V465T/R467V/D470T/R473T/S477T/R479Q/T480L/E481Q/R482Q/L483S/I485M/R486Y/DEL488-489/S490P/D491G/K494V/R498Q/Q504K/E505D/E525K/Q531K/N532H/I536F/A537T/F540P/G542N/E545Q/R550K/R553A/F555L/R556P/S559P/R560K limits assumed): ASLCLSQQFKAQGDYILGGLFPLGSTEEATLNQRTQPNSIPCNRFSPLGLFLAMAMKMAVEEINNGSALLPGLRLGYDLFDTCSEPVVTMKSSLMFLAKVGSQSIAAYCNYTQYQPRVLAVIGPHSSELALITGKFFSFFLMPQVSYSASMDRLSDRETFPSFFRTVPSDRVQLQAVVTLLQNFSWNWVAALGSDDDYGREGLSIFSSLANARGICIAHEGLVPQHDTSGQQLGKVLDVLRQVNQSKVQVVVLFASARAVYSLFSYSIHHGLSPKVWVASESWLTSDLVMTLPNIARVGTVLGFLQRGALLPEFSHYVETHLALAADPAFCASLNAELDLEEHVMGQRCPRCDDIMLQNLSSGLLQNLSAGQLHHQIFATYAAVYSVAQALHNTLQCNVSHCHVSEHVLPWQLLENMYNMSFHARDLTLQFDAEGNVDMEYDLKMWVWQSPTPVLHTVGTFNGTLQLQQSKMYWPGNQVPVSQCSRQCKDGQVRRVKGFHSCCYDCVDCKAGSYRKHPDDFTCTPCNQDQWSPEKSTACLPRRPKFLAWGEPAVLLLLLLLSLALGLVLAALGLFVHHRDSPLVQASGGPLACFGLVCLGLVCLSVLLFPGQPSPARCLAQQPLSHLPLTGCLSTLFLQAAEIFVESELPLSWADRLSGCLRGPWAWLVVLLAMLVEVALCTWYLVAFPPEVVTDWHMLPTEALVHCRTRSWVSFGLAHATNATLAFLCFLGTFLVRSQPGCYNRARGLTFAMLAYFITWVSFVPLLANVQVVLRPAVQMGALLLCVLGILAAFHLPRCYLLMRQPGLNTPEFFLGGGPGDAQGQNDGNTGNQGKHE
T1 sequence (Q925I4 20-843 partner): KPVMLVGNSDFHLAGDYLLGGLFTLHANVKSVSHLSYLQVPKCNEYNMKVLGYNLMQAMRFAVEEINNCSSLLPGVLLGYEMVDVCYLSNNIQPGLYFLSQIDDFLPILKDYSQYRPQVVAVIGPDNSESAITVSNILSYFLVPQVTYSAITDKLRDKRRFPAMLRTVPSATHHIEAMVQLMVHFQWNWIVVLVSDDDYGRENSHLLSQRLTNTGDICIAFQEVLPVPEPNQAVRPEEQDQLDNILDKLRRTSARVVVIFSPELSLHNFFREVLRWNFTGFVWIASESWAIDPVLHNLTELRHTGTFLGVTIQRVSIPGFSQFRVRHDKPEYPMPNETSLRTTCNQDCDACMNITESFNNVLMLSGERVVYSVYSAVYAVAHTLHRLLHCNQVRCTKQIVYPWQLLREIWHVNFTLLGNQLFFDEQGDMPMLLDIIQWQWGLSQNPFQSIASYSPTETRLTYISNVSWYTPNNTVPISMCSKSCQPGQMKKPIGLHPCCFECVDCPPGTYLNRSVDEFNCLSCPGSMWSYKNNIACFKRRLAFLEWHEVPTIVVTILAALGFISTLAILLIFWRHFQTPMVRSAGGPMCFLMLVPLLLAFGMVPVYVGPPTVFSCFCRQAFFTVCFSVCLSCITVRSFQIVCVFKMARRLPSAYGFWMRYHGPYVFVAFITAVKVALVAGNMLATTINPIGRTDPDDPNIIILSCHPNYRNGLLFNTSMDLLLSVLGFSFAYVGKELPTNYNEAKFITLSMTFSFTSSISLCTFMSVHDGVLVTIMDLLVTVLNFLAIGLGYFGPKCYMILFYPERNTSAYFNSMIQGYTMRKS
Test: sweet taste preference of transgenic mice expressing humanized T1R3
Type: in vivo, mouse
Method: We used the chimeric mhT1R3 receptor to produce conventional transgenic animals. The DNA construct was injected into a genetically engineered mouse line that lacks endogenous T1R3 (T1R3KO or T1R3-null). […] We call these mice Line7.
For further crosses, we used the line 7 that has fewer copies of the transgene.
Such compounds may be produced normally in organs (e.g. in testis) or chemically synthesized.

CC(C)(Oc1ccc(Cl)cc1)C(=O)O [clofibric acid]
sweet preference of Line 7 mice (1 mM clofibric acid): blocked | sweet responses of the transgenic animals (lines 7, 9, 7c expressing humanized receptor): completely blocked
